One test relates to SKBR3. The experiment in a line: In vitro cytotoxicity assay, SKBR3. It counts as cell-based. The protocol: (§1) The Her2 over expressing cell lines, SKBR3 and SKOV3 were compared to PC3, a cell line that expresses very low level of Her2.
(§2) The ADC's generated as described above were tested for cytotoxic activity in SKOV3 and a PC3 tumor cell lines which are standard target cells for testing the activity of anti Her2 antibodies and ADC cell lines. SKOV3 cells express high levels of Her2, while PC3 cells express Her2 at low level. […] The drug treated cells are incubated at 37 C for 3 days in 100 ul medium. 20 ul of Alamar Blue (Life Technologies) is added to each well and the cells incubated for 16-24 hours and an OD 450 nm determined for each well. The cytotoxic activity of the conjugates was calculated as the concentration of ADC to kill 50% of the tumor cells in vitro as described in Table 8.

The test system of the next test is BT474. Nature of the test: In vitro cytotoxicity assay, BT474. In kind it is cell-based. To be noted: Table 8, 3 days, Alamar Blue. (In general: The colour change of resazurin is a common sign of viable cells or microbes.)
The test system of the next test is SKOV3. The experiment in a line: In vitro cytotoxicity assay, SKOV3. It counts as cell-based, human. How it is done:
(§3) The ADC's generated as described above were tested for cytotoxic activity in SKOV3 and HCC1954 and PC3 tumor cell lines which are standard target cells for testing the activity of anti Her2 antibodies and ADC cell lines. SKOV3 and HCC1954 express high levels of Her2, while PC3 expresses Her2 at low level: the cytotoxic activity was calculated as the concentration of ADC to kill 50% of the tumor cells in vitro as described in Table 5.
as §1, §2

A further test has as its system HCC1954. Nature of the test: In vitro cytotoxicity assay, HCC1954. In kind it is cell-based. The protocol: as §3, §2
Where [1] appears, read: Table 5, positional 4D5-AF ADCs.

Square brackets hold non-standard residues; d marks the D form. Peptide text beside a SMILES is read from it. * marks the point of attachment. Dolaproine = CO[C@@H]([C@@H]1CCCN1)[C@@H](C)C(=O)O; Dil = CC[C@H](C)[C@H](NC)[C@@H](CC(=O)O)OC; NMe2Val = CC(C)[C@@H](C(=O)*)N(C)C

What is called EC50 is the concentration needed to bring the measured effect to its halfway point. A lower EC50 goes with higher potency in that assay.

As for `CC[C@H](C)[C@@H]([C@@H](CC(=O)N1CCC[C@H]1[C@H](OC)[C@@H](C)C(=O)N[C@@H](Cc1ccccc1)C(=O)O)OC)N(C)C(=O)[C@@H](NC(=O)[C@H](C(C)C)N(C)C)C(C)C` [AF, Auristatin F] (NMe2Val-V[Dil][Dolaproine]F-OH), the EC50 with SKBR3 (Table 6) worked out at 71 nM; with SKBR3 (Table 8, 3 days, Alamar Blue) it was 33.3 nM; with BT474 it was 58.8 nM; in the test on SKOV3 (setting [1]), 69.4 nM; in the test with SKOV3 (Table 6), 287 nM; with SKOV3 (Table 8, 3 days, Alamar Blue), 23.5 nM. Moreover, the concentration for a half-maximal effect (EC50) came to 18.8 nM in the test with HCC1954 (setting [1]) and 12.9 nM in the test with HCC1954 (Table 8, 3 days, Alamar Blue).

Values taken from US9732367B2, “Cell lines” (MEDIMMUNE LIMITED, priority 2012, dated 2017).
